Experimental data as given in patent publication US20230219963A1, “PYRROLO[2,3-D]PYRIMIDINE DERIVATIVES” (Pfizer Inc., priority 2020, published 2023).

Legend:
[1] = tested on: IL-21 induced pSTAT3; test: IL-21-induced pSTAT3 in human whole blood (lymphocytes); assay type: cell-based; settings: Lymphocyte, JAK1/JAK3, read-out: IL-21 induced pSTAT3, cellular potency IC50
Procedure: (§1) Human whole blood was collected from healthy donors via vein puncture into Vacutainer collection tubes containing sodium heparin in accordance with Pfizer protocols (Protocol No. GOHW RDP-01) approved by the Shulman Institutional Review Board. Blood was warmed to 37° C. priorto use. Human whole blood was aliquoted (90 μL/well) in 96-well, deep-well, V-bottom plates and treated with compounds (5 μL/well) at different concentrations up to 60 μM (0.2% DMSO final) at 37° C. for 60 minutes. This was followed by a challenge with IFNα (5000 U/mL), IFNγ (100 ng/mL), IL-6 (50 ng/mL), IL-10 (30 ng/mL), IL-12 (30 ng/mL), IL-15 (30 ng/mL), IL-21 (50 ng/mL), IL-23 (25 ng/mL), IL-27 (1000 ng/mL), EPO (2 U/mL), TSLP (50 ng/mL) or PBS and incubated for 15 minutes. Anti-cell surface antibodies were added 15 minutes prior to cytokine stimulation; anti-CD3-BV421 (0.5 μL/well) to IL-6-treated and TSLP-treated samples and anti-CD14-BV421 (0.5 μL/well) to IFNγ-treated samples. Samples were treated with warm 1×Lyse/Fix buffer (700 μL/well) to terminate activation and further incubated at 37° C. for 20 minutes to lyse red blood cells. Plates were centrifuged at 300×g for 5 minutes, supernatant was aspirated, and cells were washed with 800 μL/well of staining buffer (D-PBS containing 0.1% FBS and 0.01% sodium azide). Washed cell pellets were resuspended in 350 μL/well of prechilled 90% methanol and incubated at 4° C. for 30 minutes. After the removal of 90% methanol, cells were washed once with staining buffer. All samples were finally suspended in 150 μL/well of the desired anti-phospho-STAT antibodies at 1:150 dilution in staining buffer; anti-pSTAT1-AF647 in IFNγ treated samples; anti-pSTAT1-AF488 and anti-pSTAT3-AF647 in IL-6-treated samples, anti-pSTAT3-AF647 in IFNα, IL-10, IL-21, IL-23 and IL-27 treated samples, anti-pSTAT4-AF647 in IL-12 treated samples, anti-pSTAT5-AF-647 in EPO, IL-15 and TSLP-treated samples. Human primary keratinocytes were cultured in DermaLife™ medium with supplement kit to expand cell population. Cell passages 2 to 5 were used in the assays. Cells were harvested at ˜80% confluence, suspended in warm DermaLife™ medium, aliquoted (90 μL/well) in 96-well, deep-well, V-bottom plates, and incubated at 37° C. for 30 minutes. Cells were then treated with compounds (0.0003 to 20 μM) for 60 minutes and followed by stimulation with IL-4 (2 ng/mL) or IL-13 (20 ng/mL) at 37° C. for 15 minutes. […]
(§2) After overnight incubation at 4° C., anti-pSTAT stained samples were transferred into 96-well polypropylene U-bottom plates and flow cytometric analysis was performed on a LSR Fortessa™ equipped with a HTS plate loader. […] Background fluorescence was defined using unstimulated cells and a gate was placed at the foot of the peak to include ˜0.5% gated population. […]

[2] = tested on: IL-15 induced pSTAT5; test: IL-15-induced pSTAT5 in human whole blood (lymphocytes); assay type: cell-based; settings: Lymphocyte, JAK1/JAK3, read-out: IL-15 induced pSTAT5, cellular potency IC50
Procedure: as §1, §2

[3] = molecular target: JAK2 (Homo sapiens, UniProt O60674); test: JAK Caliper Enzyme Assay at 1 mM ATP (JAK2); assay type: biochemical
Procedure: (§3) JAK Caliper Enzyme Assay at 1 mM ATP
(§4) Test article was solubilized in dimethyl sulfoxide (DMSO) to a stock concentration of 30 mM. An 11-point half log dilution series was created in DMSO with a top concentration of 600 μM. […] The compound plates were diluted 1 to 60 resulting in a top final assay compound concentration of 10 μM and a 2% DMSO concentration. Test article and assay controls were added to a 384-well plate. Reaction mixtures contained 20 mM HEPES, pH 7.4, 10 mM magnesium chloride, 0.01% bovine serum albumin (BSA), 0.0005% Tween 20, 1 mM ATP and 1 μM peptide substrate. […] The assays were initiated by the addition of 20 nM JAK1, 1 nM JAK2, 1 nM JAK3 or 1 nM TYK2 enzyme and were incubated at room temperature for three hours for JAK1, 60 minutes for JAK2, 75 minutes for JAK3 or 135 minutes for TYK2. Enzyme concentrations and incubation times were optimized for each new enzyme preps and were modified slightly over time to ensure 20%-30% phosphorylation. The assays were stopped with a final concentration of 10 mM EDTA, 0.1% Coating Reagent and 100 mM HEPES, pH=7.4. The assay plates were placed on a Caliper Life Science Lab Chip 3000 (LC3000) instrument, and each well was sampled using appropriate separation conditions to measure the unphosphorylated and phosphorylated peptide.

[4] = tested on: IL-10 induced pSTAT3; test: IL-10-induced pSTAT3 in human whole blood (lymphocytes); assay type: cell-based; settings: Lymphocyte, JAK1/TYK2, read-out: IL-10 induced pSTAT3, cellular potency IC50
Procedure: as §1, §2

[5] = tested on: IFNa induced pSTAT3; test: IFNα-induced pSTAT3 in human whole blood (lymphocytes); assay type: cell-based; settings: Lymphocyte, JAK1/TYK2, read-out: IFNa induced pSTAT3, cellular potency IC50
Procedure: Human whole blood was collected from healthy donors via vein puncture into Vacutainer collection tubes containing sodium heparin in accordance with Pfizer protocols (Protocol No. GOHW RDP-01) approved by the Shulman Institutional Review Board. Blood was warmed to 37° C. priorto use. Human whole blood was aliquoted (90 μL/well) in 96-well, deep-well, V-bottom plates and treated with compounds (5 μL/well) at different concentrations up to 60 μM (0.2% DMSO final) at 37° C. for 60 minutes. This was followed by a challenge with IFNα (5000 U/mL), IFNγ (100 ng/mL), IL-6 (50 ng/mL), IL-10 (30 ng/mL), IL-12 (30 ng/mL), IL-15 (30 ng/mL), IL-21 (50 ng/mL), IL-23 (25 ng/mL), IL-27 (1000 ng/mL), EPO (2 U/mL), TSLP (50 ng/mL) or PBS and incubated for 15 minutes. Anti-cell surface antibodies were added 15 minutes prior to cytokine stimulation; anti-CD3-BV421 (0.5 μL/well) to IL-6-treated and TSLP-treated samples and anti-CD14-BV421 (0.5 μL/well) to IFNγ-treated samples. Samples were treated with warm 1×Lyse/Fix buffer (700 μL/well) to terminate activation and further incubated at 37° C. for 20 minutes to lyse red blood cells. Plates were centrifuged at 300×g for 5 minutes, supernatant was aspirated, and cells were washed with 800 μL/well of staining buffer (D-PBS containing 0.1% FBS and 0.01% sodium azide). Washed cell pellets were resuspended in 350 μL/well of prechilled 90% methanol and incubated at 4° C. for 30 minutes. After the removal of 90% methanol, cells were washed once with staining buffer. […]
as §2

[6] = molecular target: TYK2 (Homo sapiens, UniProt P29597); test: JAK Caliper Enzyme Assay at 1 mM ATP (TYK2); assay type: biochemical
Procedure: as §3, §4

[7] = tested on: IL-27 induced pSTAT3; test: IL-27-induced pSTAT3 in human whole blood (lymphocytes); assay type: cell-based; settings: Lymphocyte, JAK1/JAK2, read-out: IL-27 induced pSTAT3, cellular potency IC50
Procedure: as §1, §2

Chain of JAK2 (O60674 whole entry): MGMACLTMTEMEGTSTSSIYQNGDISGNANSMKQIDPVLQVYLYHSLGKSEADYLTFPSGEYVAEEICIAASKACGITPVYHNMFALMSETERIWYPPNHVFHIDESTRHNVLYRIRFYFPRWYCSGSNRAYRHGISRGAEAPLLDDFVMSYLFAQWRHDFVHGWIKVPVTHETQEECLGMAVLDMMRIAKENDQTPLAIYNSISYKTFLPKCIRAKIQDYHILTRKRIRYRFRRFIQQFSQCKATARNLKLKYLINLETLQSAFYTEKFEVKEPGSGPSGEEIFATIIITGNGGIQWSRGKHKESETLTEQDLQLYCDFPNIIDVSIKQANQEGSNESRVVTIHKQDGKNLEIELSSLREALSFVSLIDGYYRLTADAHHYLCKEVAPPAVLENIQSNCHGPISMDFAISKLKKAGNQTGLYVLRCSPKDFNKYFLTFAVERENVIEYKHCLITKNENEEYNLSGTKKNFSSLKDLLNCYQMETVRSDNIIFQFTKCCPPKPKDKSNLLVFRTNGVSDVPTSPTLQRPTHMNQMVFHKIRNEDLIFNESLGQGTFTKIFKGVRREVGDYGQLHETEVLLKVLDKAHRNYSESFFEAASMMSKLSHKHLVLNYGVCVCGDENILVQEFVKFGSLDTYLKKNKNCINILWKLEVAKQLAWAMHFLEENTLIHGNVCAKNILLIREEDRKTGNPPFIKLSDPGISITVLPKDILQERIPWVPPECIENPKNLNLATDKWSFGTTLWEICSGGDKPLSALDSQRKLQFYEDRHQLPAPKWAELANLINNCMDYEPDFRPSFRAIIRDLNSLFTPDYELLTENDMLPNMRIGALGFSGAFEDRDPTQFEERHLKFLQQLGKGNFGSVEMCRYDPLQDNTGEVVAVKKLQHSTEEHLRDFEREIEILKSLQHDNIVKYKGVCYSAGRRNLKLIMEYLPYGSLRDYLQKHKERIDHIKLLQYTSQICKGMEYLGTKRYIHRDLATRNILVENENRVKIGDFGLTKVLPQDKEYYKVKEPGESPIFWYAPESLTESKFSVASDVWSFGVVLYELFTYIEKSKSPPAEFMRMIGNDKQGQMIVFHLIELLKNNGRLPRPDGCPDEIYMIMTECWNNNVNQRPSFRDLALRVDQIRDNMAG
Chain of TYK2 (P29597 whole entry): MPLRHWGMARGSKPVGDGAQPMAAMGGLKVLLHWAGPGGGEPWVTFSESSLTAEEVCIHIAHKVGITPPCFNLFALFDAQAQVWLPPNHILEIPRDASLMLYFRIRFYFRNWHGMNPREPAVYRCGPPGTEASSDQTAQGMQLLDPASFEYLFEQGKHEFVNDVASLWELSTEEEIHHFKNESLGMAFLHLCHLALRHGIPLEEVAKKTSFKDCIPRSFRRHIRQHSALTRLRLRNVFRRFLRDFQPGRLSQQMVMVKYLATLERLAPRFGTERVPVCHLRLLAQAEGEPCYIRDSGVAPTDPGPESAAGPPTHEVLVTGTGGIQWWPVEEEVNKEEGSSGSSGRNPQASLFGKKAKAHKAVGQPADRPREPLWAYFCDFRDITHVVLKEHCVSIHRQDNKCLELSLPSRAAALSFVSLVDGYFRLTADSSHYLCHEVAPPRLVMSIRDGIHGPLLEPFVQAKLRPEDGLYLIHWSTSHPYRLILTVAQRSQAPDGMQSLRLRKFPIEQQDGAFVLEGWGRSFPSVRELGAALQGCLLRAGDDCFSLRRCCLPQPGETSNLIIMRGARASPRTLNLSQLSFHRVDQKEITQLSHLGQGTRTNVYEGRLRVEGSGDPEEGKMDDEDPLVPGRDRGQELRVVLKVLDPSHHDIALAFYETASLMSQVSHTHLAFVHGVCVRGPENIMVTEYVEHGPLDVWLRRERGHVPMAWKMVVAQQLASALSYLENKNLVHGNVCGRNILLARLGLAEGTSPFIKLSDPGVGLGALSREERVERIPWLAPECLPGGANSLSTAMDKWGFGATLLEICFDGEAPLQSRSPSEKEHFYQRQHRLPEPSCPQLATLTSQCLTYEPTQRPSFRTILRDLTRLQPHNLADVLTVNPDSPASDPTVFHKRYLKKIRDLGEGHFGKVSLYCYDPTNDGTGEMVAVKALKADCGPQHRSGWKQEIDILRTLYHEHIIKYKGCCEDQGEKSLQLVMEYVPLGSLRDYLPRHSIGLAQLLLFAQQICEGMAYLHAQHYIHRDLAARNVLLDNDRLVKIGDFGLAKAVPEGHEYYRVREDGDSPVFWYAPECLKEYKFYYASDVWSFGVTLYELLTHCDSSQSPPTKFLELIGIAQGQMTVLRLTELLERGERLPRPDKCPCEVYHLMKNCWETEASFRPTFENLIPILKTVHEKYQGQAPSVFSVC

Row | IC50 [1] | IC50 [2] | IC50 [3] | IC50 [4] | IC50 [5] | IC50 [6] | IC50 [7] | SMILES
1 | 487 nM | 353 nM | 886 nM | 233 nM | 90.5 nM | 1210 nM | 234 nM | C[C@H](O)CS(=O)(=O)N[C@H]1C[C@@H](N(C)c2ncnc3[nH]ccc23)C1 (single isomer, unassigned) [IA (M2)]
2 | 1050 nM | 800 nM | 2280 nM | 488 nM | 225 nM | 3420 nM | 572 nM | C[C@@H](O)CS(=O)(=O)N[C@H]1C[C@@H](N(C)c2ncnc3[nH]ccc23)C1 (single isomer, unassigned) [IC (M3)]
3 | 844 nM | 558 nM | 1140 nM | 675 nM | 296 nM | 3190 nM | 382 nM | CN(c1ncnc2[nH]ccc12)[C@H]1C[C@@H](NS(=O)(=O)CCCO)C1 [IB (M1), 3-Hydroxy-N-(cis-3-(methyl(7H-pyrrolo[2,3-d]pyrimidin-4-yl)amino)cyclobutyl)propane-1-sulfonamide]
